Results published in ChEMBL document CHEMBL4831512 (J Med Chem, 2021).
Values after ≈ are worked out from the molar mass of the structure shown. Each block holds one molecule with its values, some of them ahead of it. Active and inactive are the calls of the source. No cut-off for these calls is given here.

Assays:
in vitro = details: PAMPA
Description: Permeability of the compound at 500 uM incubated for 16 hrs by PAMPA

in vivo [1] = details: Sprague-Dawley, rat, iv, 1 mg/kg
Blood = assay: tissue or blood; assay type: functional, tissue-based; details: Homo sapiens
physchem [2] = details: buffer, pH 6.8
Description: Equilibrium solubility of compound in buffer at pH 6.8 incubated over night under shaking condition by LC-MS/MS analysis

[3] = biological target: 3',5'-cyclic-AMP phosphodiesterase 4D (Homo sapiens, UniProt Q08499)
Sequence of 3',5'-cyclic-AMP phosphodiesterase 4D (Q08499 whole entry): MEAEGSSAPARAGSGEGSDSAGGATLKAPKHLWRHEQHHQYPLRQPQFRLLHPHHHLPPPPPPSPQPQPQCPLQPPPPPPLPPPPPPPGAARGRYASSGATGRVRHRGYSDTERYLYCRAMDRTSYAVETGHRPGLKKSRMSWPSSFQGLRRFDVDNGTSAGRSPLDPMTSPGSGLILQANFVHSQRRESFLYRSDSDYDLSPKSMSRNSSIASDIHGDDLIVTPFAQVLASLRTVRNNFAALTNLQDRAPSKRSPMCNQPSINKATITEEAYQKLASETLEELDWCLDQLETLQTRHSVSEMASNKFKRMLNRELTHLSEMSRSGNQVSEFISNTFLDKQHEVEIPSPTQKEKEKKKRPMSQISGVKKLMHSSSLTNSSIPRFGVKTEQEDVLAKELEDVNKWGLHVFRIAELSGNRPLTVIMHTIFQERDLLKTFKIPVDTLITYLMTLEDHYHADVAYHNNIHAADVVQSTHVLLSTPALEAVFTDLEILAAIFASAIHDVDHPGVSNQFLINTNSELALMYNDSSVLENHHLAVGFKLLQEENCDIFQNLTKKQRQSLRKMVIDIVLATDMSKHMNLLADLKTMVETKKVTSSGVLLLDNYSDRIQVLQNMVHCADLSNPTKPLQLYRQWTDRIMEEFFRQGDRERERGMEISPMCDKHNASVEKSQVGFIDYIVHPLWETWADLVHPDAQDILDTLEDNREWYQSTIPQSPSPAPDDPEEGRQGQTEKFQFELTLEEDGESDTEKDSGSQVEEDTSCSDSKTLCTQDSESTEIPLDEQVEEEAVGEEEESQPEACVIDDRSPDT
Description: Binding affinity to PDE4d (unknown origin)

Rattus norvegicus [4] = species: Rattus norvegicus; details: dose 10-20 mg/kg, time 2.0 hrs
Rattus norvegicus [5] = species: Rattus norvegicus; details: dose 20.0 mg/kg, time 2.0 hrs
in vivo [6] = details: Sprague-Dawley, rat, po, 10 mg/kg
in vivo [7] = details: Sprague-Dawley, rat, iv, 1 mg/kg; remark: listed apart in the source
in vivo [8] = details: Sprague-Dawley, rat, po, 100 mg/kg
in vivo [9] = details: Sprague-Dawley, rat, po, 10 mg/kg; remark: listed apart in the source
in vivo [10] = details: Sprague-Dawley, rat, po, 100 mg/kg; remark: listed apart in the source
in vivo [11] = details: Sprague-Dawley, rat, po, 10 mg/kg; remark: listed apart in the source
in vivo [12] = details: Sprague-Dawley, rat, po, 100 mg/kg; remark: listed apart in the source
in vivo [13] = details: Sprague-Dawley, rat, po, 300 mg/kg
in vivo [14] = details: Sprague-Dawley, rat, po, 300 mg/kg; remark: listed apart in the source
in vivo [15] = details: Sprague-Dawley, rat, po, 300 mg/kg; remark: listed apart in the source
physchem [16] = details: simulated gi fluid, pH 1
Description: Solubility of compound in stimulated gastric fluid at pH 1 using crystalline form of sample by shake flask method

physchem [17] = details: buffer, pH 6.8; remark: listed apart in the source
Description: Solubility of compound at pH 6.8 by shake flask method

physchem [18] = details: simulated gi fluid
Description: Solubility of compound in fed state simulated intestinal fluid by shake flask method

[19] = biological target: T1, Phosphatidylinositol 4,5-bisphosphate 3-kinase catalytic subunit alpha isoform (Homo sapiens, UniProt P42336); assay type: cell-based, Fibroblast
T1 sequence (P42336 whole entry, canonical isoform): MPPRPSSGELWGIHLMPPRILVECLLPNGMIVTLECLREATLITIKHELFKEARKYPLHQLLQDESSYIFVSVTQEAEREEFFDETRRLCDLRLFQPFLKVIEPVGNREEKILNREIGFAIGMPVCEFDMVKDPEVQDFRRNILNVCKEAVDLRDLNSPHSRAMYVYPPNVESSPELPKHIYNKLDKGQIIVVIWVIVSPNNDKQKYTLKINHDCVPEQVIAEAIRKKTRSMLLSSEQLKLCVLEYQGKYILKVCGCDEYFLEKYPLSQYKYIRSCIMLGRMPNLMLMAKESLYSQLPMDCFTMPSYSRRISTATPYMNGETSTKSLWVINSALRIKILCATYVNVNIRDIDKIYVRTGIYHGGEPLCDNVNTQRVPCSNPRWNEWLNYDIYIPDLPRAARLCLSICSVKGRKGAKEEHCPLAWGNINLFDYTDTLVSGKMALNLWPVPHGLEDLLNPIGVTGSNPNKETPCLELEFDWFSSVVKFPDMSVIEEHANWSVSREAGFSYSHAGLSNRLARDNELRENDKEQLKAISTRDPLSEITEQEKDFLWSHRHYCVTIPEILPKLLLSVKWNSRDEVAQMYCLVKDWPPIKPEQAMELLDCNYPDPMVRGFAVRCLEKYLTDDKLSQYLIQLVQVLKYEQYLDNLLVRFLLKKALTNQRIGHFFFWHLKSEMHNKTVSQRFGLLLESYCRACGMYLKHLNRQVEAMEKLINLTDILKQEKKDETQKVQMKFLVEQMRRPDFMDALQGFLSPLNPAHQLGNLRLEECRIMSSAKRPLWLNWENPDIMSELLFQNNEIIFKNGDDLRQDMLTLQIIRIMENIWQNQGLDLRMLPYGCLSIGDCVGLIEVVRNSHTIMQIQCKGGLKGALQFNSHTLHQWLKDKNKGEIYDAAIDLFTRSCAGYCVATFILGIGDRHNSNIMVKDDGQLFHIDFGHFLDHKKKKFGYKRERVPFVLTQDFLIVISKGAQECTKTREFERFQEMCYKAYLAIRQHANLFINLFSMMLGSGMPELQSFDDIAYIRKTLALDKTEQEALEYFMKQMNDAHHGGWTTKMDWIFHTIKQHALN
Description: Inhibition of human PI3Kalpha expressed in rat fibroblast cells assessed as reduction in AKT phosphorylation at Ser473 residue incubated for 1 hr by AlphaScreen assay

[20] = biological target: T2, Phosphatidylinositol 4,5-bisphosphate 3-kinase catalytic subunit beta isoform (Homo sapiens, UniProt P42338)
T2 sequence (P42338 whole entry, canonical isoform): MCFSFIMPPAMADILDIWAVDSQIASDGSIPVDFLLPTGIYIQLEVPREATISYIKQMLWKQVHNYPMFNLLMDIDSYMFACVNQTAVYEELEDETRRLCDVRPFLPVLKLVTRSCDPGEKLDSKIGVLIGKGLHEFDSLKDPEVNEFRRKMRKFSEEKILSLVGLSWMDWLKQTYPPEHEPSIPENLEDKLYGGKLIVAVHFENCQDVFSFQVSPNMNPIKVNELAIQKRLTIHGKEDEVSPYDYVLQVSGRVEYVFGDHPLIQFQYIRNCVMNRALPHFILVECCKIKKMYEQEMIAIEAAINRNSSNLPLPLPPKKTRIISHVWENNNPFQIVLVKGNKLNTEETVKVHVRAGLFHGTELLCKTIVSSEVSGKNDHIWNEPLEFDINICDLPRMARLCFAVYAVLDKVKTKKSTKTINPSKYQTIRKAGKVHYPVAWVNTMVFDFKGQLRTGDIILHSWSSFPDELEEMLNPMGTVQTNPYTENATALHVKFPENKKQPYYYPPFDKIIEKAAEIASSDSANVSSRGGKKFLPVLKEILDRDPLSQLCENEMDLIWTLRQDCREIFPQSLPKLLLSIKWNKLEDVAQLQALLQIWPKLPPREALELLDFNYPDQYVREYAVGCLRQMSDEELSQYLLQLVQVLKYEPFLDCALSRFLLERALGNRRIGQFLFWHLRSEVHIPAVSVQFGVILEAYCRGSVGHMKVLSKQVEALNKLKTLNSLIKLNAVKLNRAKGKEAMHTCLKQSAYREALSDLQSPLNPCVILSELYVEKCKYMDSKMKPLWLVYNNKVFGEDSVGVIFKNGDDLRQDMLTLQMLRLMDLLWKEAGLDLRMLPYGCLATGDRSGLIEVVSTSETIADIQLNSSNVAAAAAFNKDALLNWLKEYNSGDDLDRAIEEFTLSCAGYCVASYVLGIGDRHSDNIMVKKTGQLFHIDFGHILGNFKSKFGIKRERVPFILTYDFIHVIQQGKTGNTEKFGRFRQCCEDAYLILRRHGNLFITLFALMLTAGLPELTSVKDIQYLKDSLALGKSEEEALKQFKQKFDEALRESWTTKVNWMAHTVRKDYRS

[21] = biological target: T3, Phosphatidylinositol 4,5-bisphosphate 3-kinase catalytic subunit delta isoform (Homo sapiens, UniProt O00329)
T3 sequence (O00329 whole entry): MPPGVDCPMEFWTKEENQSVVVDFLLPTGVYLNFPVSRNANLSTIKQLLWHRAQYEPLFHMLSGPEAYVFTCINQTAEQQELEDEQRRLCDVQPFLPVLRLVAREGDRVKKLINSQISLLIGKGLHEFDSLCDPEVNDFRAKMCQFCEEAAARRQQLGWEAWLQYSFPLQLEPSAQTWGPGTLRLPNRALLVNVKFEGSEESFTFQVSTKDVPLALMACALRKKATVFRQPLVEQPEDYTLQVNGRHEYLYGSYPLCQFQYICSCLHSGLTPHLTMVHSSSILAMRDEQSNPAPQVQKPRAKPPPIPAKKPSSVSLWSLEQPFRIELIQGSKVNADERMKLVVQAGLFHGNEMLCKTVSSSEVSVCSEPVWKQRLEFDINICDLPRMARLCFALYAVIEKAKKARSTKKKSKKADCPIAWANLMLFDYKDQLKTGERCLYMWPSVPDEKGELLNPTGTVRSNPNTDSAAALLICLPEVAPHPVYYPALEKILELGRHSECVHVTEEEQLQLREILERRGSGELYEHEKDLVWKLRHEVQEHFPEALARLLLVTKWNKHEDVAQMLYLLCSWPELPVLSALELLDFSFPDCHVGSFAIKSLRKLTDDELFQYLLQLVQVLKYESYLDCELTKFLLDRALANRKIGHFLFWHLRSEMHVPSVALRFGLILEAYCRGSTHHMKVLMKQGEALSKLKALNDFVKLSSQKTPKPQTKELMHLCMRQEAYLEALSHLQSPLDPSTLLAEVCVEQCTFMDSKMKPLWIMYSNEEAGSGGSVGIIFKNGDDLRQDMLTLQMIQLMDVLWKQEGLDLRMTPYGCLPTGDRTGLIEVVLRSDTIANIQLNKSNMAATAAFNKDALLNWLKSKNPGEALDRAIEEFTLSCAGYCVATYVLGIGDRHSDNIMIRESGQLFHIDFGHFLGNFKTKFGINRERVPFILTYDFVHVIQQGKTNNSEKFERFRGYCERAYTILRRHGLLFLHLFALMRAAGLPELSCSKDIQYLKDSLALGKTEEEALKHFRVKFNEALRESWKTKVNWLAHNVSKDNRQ

[22] = biological target: T2, Phosphatidylinositol 4,5-bisphosphate 3-kinase catalytic subunit beta isoform; assay type: cell-based, Fibroblast
Description: Inhibition of human PI3Kbeta expressed in rat fibroblast cells assessed as reduction in AKT phosphorylation at Ser473 residue incubated for 1 hr by AlphaScreen assay

[23] = biological target: T3, Phosphatidylinositol 4,5-bisphosphate 3-kinase catalytic subunit delta isoform; assay type: cell-based, Fibroblast
Description: Inhibition of human PI3Kdelta expressed in rat fibroblast cells assessed as reduction in AKT phosphorylation at Ser473 residue incubated for 1 hr by AlphaScreen assay

[24] = biological target: T1, Phosphatidylinositol 4,5-bisphosphate 3-kinase catalytic subunit alpha isoform

Compound: Cc1ncc(-c2nc(-c3cc(S(=O)(=O)NCCC(C)(C)O)ccc3C)cnc2N)s1
Fa at 16 h, 500 µM (in vitro): 35%

Compound: Cc1ncc(-c2nc(-c3cc(S(=O)(=O)N[C@H]4CC[C@H](O)CC4)ccc3C)cnc2N)s1
Fa at 16 h, 500 µM (in vitro): < 21%

Compound: Cc1ccc(S(=O)(=O)N[C@H]2CC[C@H](O)CC2)cc1-c1cnc(N)c(C(=O)C2CC2)n1
half-life (in vivo [1]): 4.6 h

Compound: Cc1ccc(S(=O)(=O)NCC(C)(C)O)cc1-c1cnc(N)c(-c2nn(C)nc2C)n1
Fa at 16 h, 500 µM (in vitro): 81%

Compound: CCn1nnc(CCNC(=O)Nc2nc(C)c(-c3ccc(S(C)(=O)=O)c(F)c3)s2)n1
IC50 (Blood): 7.05 µM
IC50 [19]: > 10 µM
IC50 [20]: 0.36 µM
IC50 [21]: 0.96 µM
IC50 [22]: 2.36 µM
IC50 [23]: 4.03 µM
IC50 [24]: 3.03 µM

Compound: Cc1ncc(-c2nc(-c3cc(S(=O)(=O)NC4CCC(F)(F)CC4)ccc3C)cnc2N)s1
Fa at 16 h, 500 µM (in vitro): 96%

Compound: Cc1ccc(S(=O)(=O)NCC(C)(C)O)cc1-c1cnc(N)c(-n2cncn2)n1
Fa at 16 h, 500 µM (in vitro): 27%

Compound: Cc1ncc(-c2nc(-c3cc(S(=O)(=O)NCCCO)ccc3C)cnc2N)s1
Fa at 16 h, 500 µM (in vitro): 27%

Compound: Cc1ncc(-c2nc(-c3cc(S(=O)(=O)NCCO)ccc3C)cnc2N)s1
Fa at 16 h, 500 µM (in vitro): 35%

Now from value to molecule, other results behind:

Fa at 16 h, 500 µM (in vitro): 27%
Compound: Cc1nnc(-c2cc(-c3cc(S(=O)(=O)NCC(C)(C)O)ccc3C)cnc2N)o1

Fa at 16 h, 500 µM (in vitro): < 27%
Compound: Cc1ccc(S(=O)(=O)NCC(C)(C)O)cc1-c1cnc(N)c(-n2cncn2)c1

Fa at 16 h, 500 µM (in vitro): < 35%
Compound: Cc1ccc(S(=O)(=O)NCC(C)(C)O)cc1-c1cnc(N)c(-c2cnn(C)c2C)c1

Fa at 16 h, 500 µM (in vitro): 24%
Compound: Cc1ccc(S(=O)(=O)NCC(C)(C)O)cc1-c1cnc(N)c(-c2cn(C)nc2C)n1

IC50 (Blood): 1.81 µM
Fa at 16 h, 500 µM (in vitro): 43%
solubility thermodynamic (physchem [2]): 0.052 mg/mL (≈ 120 µM)
Compound: Cc1ncc(-c2cc(-c3cc(S(=O)(=O)NCC(C)(C)O)ccc3C)cnc2N)s1

Fa at 16 h, 500 µM (in vitro): 96%
Compound: Cc1ccn(-c2nc(-c3cc(S(=O)(=O)NCC(C)(C)O)ccc3C)cnc2N)n1

Fa at 16 h, 500 µM (in vitro): 68%
solubility thermodynamic (physchem [2]): 0.03 mg/mL (≈ 72.2 µM)
Compound: Cc1cnn(-c2cc(-c3cc(S(=O)(=O)NCC(C)(C)O)ccc3C)cnc2N)c1

IC50 (Blood): 0.856 µM
IC50 [3]: 1.1 µM
Cmax (in vivo [6]): 1.53 µM
clearance (in vivo [7]): 1.8 L/h/kg
Cmax (in vivo [8]): 12.2 µM
AUC(0-t) at 24 h (in vivo [9]): 9.75 µM·h
AUC(0-t) at 24 h (in vivo [10]): 128 µM·h
bioavailability (in vivo [11]): 72%
bioavailability (in vivo [12]): 94%
Cmax (in vivo [13]): 25.2 µM
AUC(0-t) at 24 h (in vivo [14]): 397 µM·h
bioavailability (in vivo [15]): 122%
Fa at 16 h, 500 µM (in vitro): < 27%
solubility thermodynamic (physchem [2]): 0.27 mg/mL (≈ 648 µM)
solubility thermodynamic (physchem [16]): 0.532 mg/mL (≈ 1280 µM)
solubility thermodynamic (physchem [17]): 0.004 mg/mL (≈ 9.6 µM)
solubility thermodynamic (physchem [18]): 0.2 mg/mL (≈ 480 µM)
Compound: Cc1ncc(-c2cc(-c3cc(S(=O)(=O)NCC(C)(C)O)ccc3C)cnc2N)o1
inhibition (Rattus norvegicus [4]): Dose-Dependent Effect
inhibition (Rattus norvegicus [5]): Active

Fa at 16 h, 500 µM (in vitro): 43%
Compound: Cc1cc(-c2nc(-c3cc(S(=O)(=O)NCC(C)(C)O)ccc3C)cnc2N)on1

Cmax (in vivo [6]): 3.29 µM
clearance (in vivo [7]): 0.9 L/h/kg
AUC(0-t) at 24 h (in vivo [9]): 17.1 µM·h
bioavailability (in vivo [11]): 66%
Fa at 16 h, 500 µM (in vitro): 81%
solubility thermodynamic (physchem [2]): 0.16 mg/mL (≈ 383 µM)
solubility thermodynamic (physchem [16]): 1.02 mg/mL (≈ 2460 µM)
solubility thermodynamic (physchem [17]): 0.016 mg/mL (≈ 38.3 µM)
solubility thermodynamic (physchem [18]): 0.092 mg/mL (≈ 220 µM)
Compound: Cc1noc(-c2cc(-c3cc(S(=O)(=O)NCC(C)(C)O)ccc3C)cnc2N)n1

Fa at 16 h, 500 µM (in vitro): 60%
Compound: Cc1ccc(S(=O)(=O)NCC(C)(C)O)cc1-c1cnc(N)c(-c2cnn(C)n2)n1

Fa at 16 h, 500 µM (in vitro): 43%
Compound: Cc1ncc(-c2nc(-c3cc(S(=O)(=O)NCC(C)(C)O)ccc3C)cnc2N)s1

IC50 (Blood): 0.931 µM
Fa at 16 h, 500 µM (in vitro): 52%
solubility thermodynamic (physchem [2]): 0.29 mg/mL (≈ 696 µM)
Compound: Cc1ccc(S(=O)(=O)NCC(C)(C)O)cc1-c1cnc(N)c(-c2cnn(C)n2)c1
